Results on three substances are retold here after patent publication US9598720B2, “Monomeric and polymeric linkers useful for conjugating biological molecules and other substances” (DAKO Denmark A/S, priority 2005, dated 2017).

“Also recorded” adds a separate entry of the source.

The subject of this data set is repetitive DNA sequence in the centromere of the human chromosome 17. As to the kind of experiment: FISH on metaphases with fluorescein labeled PNAs, green signal compared with a red fluorescent PNA. The settings on record: visual and Leica QFISH Measure Intensity. The source says:
The PNA sequence was directed at a repetitive DNA sequence in the centromere of the human chromosome 17, allowing the PNAs to be compared by FISH on metaphases. To erase specimen variation, each of the PNAs was mixed with a red fluorescent PNA directed at the same centromere region on chromosome 17, and the intensity of the red and green signals compared visually and quantified by the “Measure Intensity” function in the Leica QFISH program.
As for “((FlU-L60)2-Lys-L60)2-LyS-L30-AACGGGATAACTGCACCT-NH2 (all peptide nucleic acid (PNA); PNA with Lys(Flu) fluorescein and L30/L90 linkers at the termini, C-terminal amide, further chemistry not fully specified) [Linker derivative 19]”, the “intensity of the green signal” value is “more intense signals”.

For “Ac-Lys(Flu)-L30-AACGGGATAACTGCACCT-L30-Lys(Flu)-L90-Lys(Flu)-L90-Lys(Flu)-NH2 (all peptide nucleic acid (PNA); PNA with Lys(Flu) fluorescein and L30/L90 linkers at the termini, C-terminal amide, further chemistry not fully specified) [Linker derivative 15]”, the “intensity of the green signal” value is “more intense signals”.

“H-Lys(Flu)-L30-AACGGGATAACTGCACCT-L30-Lys(Flu)-L90-Lys(Flu)-L90-Lys(Flu)-NH2 (all peptide nucleic acid (PNA); PNA with Lys(Flu) fluorescein and L30/L90 linkers at the termini, C-terminal amide, further chemistry not fully specified) [Linker derivative 16]”: the “intensity of the green signal” value is on record as “more intense signals; also recorded: most intense”.
